Laboratory results reported in article PMC4620497 (Scientific Reports, 2015).

How the values were obtained:
PAK2 [1] = target: T1, PAK2 (Homo sapiens, UniProt Q13177); design: method as in earlier work; conditions: Table S1; cited from earlier work
T1 construct: purchased DiscoveRx KINOMEscan (Ambit Biosciences)

PAK1 = PAK1 (Homo sapiens, UniProt Q13153); design: method as in earlier work; conditions: Table S1; cited from earlier work
[2] = test system: wnt8.1 RNA injected zebrafish embryos; assay: Zebrafish wnt8.1 rescue experiment; assay type: in vivo; conditions: 10 μM after microinjection of wnt8.1 RNA
BMPR1A = target: T2, BMPR1A (Homo sapiens, UniProt P36894); assay: KINOMEscan panel screen; assay type: binding; conditions: read-out: Percent Control(%)
T2 construct: purchased DiscoveRx KINOMEscan (Ambit Biosciences)

CDK5 = target: T3, CDK5 (Homo sapiens, UniProt Q00535); assay: KINOMEscan panel screen; assay type: binding; conditions: read-out: Percent Control(%)
T3 construct: purchased DiscoveRx KINOMEscan (Ambit Biosciences)

[3] = target: T4, EGFR(L747-E749del, A750P) (Homo sapiens, UniProt P00533, A750P/DEL747-749); assay: KINOMEscan panel screen; assay type: binding; conditions: read-out: Percent Control(%)
T4 construct: purchased DiscoveRx KINOMEscan (Ambit Biosciences)

A2058 = assay: MTT cell viability assay; conditions: Homo sapiens, A2058, 72 h
MV4-11 cells = assay: Apoptosis assay (AnnexinV/PI staining); assay type: cell-based, human; conditions: 3 nM
Method: PI staining was used to detect the cell cycle status. […] The induction of apoptosis following treatment of MV4-11 cells was examined by AnnexinV/PI staining assays.
Flow cytometry was used for cell cycle and apoptosis assays. MV4-11 cells were treated with SKLB-677 for 24 h, and then the cells were harvested and washed with PBS. Cell Cycle and Apoptosis Analysis Kit (Beyotime) was used for cell cycle analysis and the Annexin V-FITC & PI Cell Apoptosis Analysis Kit (KeyGENE BioTECH) was used for apoptosis assays. The data was analyzed using FLOWJO software (V7.6.5).
Figure 2 SKLB-677 inhibited FLT3 activation and induced cell cycle arrest and apoptosis. (a) MV4-11 cells were treated with various concentrations of SKLB-677 or 0.1% DMSO for 1 h. The phosphorylation levels of FLT3 and downstream signal proteins were assessed using antibodies against total FLT3 (FLT3), phosphorylated Y589/591 FLT3 (p-FLT3), total STAT5 (STAT5), phosphorylated Y694 STAT5 (p-STAT5), total p44/42 MAPK (Erk1/2), and phosphorylated Y202/204 p44/42 MAPK (p-Erk1/2). β-actin was used as a loading control. (b) Primary PBMCs isolated from AML patients (FLT3-ITD positive) were treated with various concentrations of SKLB-677 or 0.1% DMSO for 6 h. The phosphorylation levels of FLT3 and downstream signal proteins were detected used the same method as that in panel a. […]

EPHA8 = target: T5, EPHA8 (Homo sapiens, UniProt P29322); assay: KINOMEscan panel screen; assay type: binding; conditions: read-out: Percent Control(%)
T5 construct: purchased DiscoveRx KINOMEscan (Ambit Biosciences)

PAK2 [4] = target: T1, PAK2; assay: KINOMEscan panel screen; assay type: binding; conditions: read-out: Percent Control(%)
EPHA4 = target: T6, EPHA4 (Homo sapiens, UniProt P54764); assay: KINOMEscan panel screen; assay type: binding; conditions: read-out: Percent Control(%)
T6 construct: purchased DiscoveRx KINOMEscan (Ambit Biosciences)

MEK6 = target: T7, MEK6 (Homo sapiens, UniProt P52564); assay: KINOMEscan panel screen; assay type: binding; conditions: read-out: Percent Control(%)
T7 construct: purchased DiscoveRx KINOMEscan (Ambit Biosciences)

MYLK2 = target: T8, MYLK2 (Homo sapiens, UniProt Q9H1R3); assay: KINOMEscan panel screen; assay type: binding; conditions: read-out: Percent Control(%)
T8 construct: purchased DiscoveRx KINOMEscan (Ambit Biosciences)

[5] = target: T9, ABL1(F317I)-nonphosphorylated (Homo sapiens, UniProt P00519, F317I); assay: KINOMEscan panel screen; assay type: binding; conditions: read-out: Percent Control(%)
T9 construct: purchased DiscoveRx KINOMEscan (Ambit Biosciences)

SLK = target: T10, SLK (Homo sapiens, UniProt Q9H2G2); assay: KINOMEscan panel screen; assay type: binding; conditions: read-out: Percent Control(%)
T10 construct: purchased DiscoveRx KINOMEscan (Ambit Biosciences)

TTK = target: T11, TTK (Homo sapiens, UniProt P33981); assay: KINOMEscan panel screen; assay type: binding; conditions: read-out: Percent Control(%)
T11 construct: purchased DiscoveRx KINOMEscan (Ambit Biosciences)

NEK1 = target: T12, NEK1 (Homo sapiens, UniProt Q96PY6); assay: KINOMEscan panel screen; assay type: binding; conditions: read-out: Percent Control(%)
T12 construct: purchased DiscoveRx KINOMEscan (Ambit Biosciences)

GRK1 = target: T13, GRK1 (Homo sapiens, UniProt Q15835); assay: KINOMEscan panel screen; assay type: binding; conditions: read-out: Percent Control(%)
T13 construct: purchased DiscoveRx KINOMEscan (Ambit Biosciences)

EPHB2 = target: T14, EPHB2 (Homo sapiens, UniProt P29323); assay: KINOMEscan panel screen; assay type: binding; conditions: read-out: Percent Control(%)
T14 construct: purchased DiscoveRx KINOMEscan (Ambit Biosciences)

MUSK = target: T15, MUSK (Homo sapiens, UniProt O15146); assay: KINOMEscan panel screen; assay type: binding; conditions: read-out: Percent Control(%)
T15 construct: purchased DiscoveRx KINOMEscan (Ambit Biosciences)

[6] = target: T16, EGFR(L747-S752del, P753S) (Homo sapiens, UniProt P00533, DEL747-752/P753S); assay: KINOMEscan panel screen; assay type: binding; conditions: read-out: Percent Control(%)
T16 construct: purchased DiscoveRx KINOMEscan (Ambit Biosciences)

LKB1 = target: T17, LKB1 (Homo sapiens, UniProt Q15831); assay: KINOMEscan panel screen; assay type: binding; conditions: read-out: Percent Control(%)
T17 construct: purchased DiscoveRx KINOMEscan (Ambit Biosciences)

[7] = target: T18, ABL1(Q252H)-nonphosphorylated (Homo sapiens, UniProt P00519, Q252H); assay: KINOMEscan panel screen; assay type: binding; conditions: read-out: Percent Control(%)
T18 construct: purchased DiscoveRx KINOMEscan (Ambit Biosciences)

IGF1R = target: T19, IGF1R (Homo sapiens, UniProt P08069); assay: KINOMEscan panel screen; assay type: binding; conditions: read-out: Percent Control(%)
T19 construct: DNA tag (qPCR read-out); purchased Ambit Biosciences (KINOMEscan service)

PAK4 = target: T20, PAK4 (Homo sapiens, UniProt O96013); assay: KINOMEscan kinase binding assay (Kd)
T20 construct: DNA tag (qPCR read-out); purchased Ambit Biosciences (KINOMEscan service)

PCTK2 = target: T21, PCTK2 (Homo sapiens, UniProt Q00537); assay: KINOMEscan panel screen; assay type: binding; conditions: read-out: Percent Control(%)
T21 construct: purchased DiscoveRx KINOMEscan (Ambit Biosciences)

DYRK2 = target: T22, DYRK2 (Homo sapiens, UniProt Q92630); assay: KINOMEscan panel screen; assay type: binding; conditions: read-out: Percent Control(%)
T22 construct: purchased DiscoveRx KINOMEscan (Ambit Biosciences)

LRRK2(G2019S) = target: T23, LRRK2(G2019S) (Homo sapiens, UniProt Q5S007, G2019S); assay: KINOMEscan panel screen; assay type: binding; conditions: read-out: Percent Control(%)
T23 construct: purchased DiscoveRx KINOMEscan (Ambit Biosciences)

BTK = BTK (Homo sapiens, UniProt Q06187); assay: KINOMEscan kinase binding assay (Kd)
Sequence of BTK (Q06187 whole entry): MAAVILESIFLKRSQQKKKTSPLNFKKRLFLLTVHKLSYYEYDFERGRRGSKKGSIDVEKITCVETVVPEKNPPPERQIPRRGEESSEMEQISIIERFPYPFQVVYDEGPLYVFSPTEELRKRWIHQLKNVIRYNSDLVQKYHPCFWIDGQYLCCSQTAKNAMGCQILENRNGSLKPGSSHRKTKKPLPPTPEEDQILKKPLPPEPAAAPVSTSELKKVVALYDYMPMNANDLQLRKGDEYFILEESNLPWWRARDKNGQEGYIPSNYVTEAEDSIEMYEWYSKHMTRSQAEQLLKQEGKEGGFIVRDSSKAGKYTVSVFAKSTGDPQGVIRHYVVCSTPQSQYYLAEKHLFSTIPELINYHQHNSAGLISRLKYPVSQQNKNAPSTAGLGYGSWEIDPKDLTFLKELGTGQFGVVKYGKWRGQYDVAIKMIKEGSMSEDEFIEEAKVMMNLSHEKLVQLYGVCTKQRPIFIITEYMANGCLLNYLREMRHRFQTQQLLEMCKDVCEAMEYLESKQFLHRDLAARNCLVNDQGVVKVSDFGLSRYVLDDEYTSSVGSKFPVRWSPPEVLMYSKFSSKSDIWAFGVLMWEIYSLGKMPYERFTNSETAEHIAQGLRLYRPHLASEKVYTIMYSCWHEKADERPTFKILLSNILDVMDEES

T1 sequence (Q13177 whole entry): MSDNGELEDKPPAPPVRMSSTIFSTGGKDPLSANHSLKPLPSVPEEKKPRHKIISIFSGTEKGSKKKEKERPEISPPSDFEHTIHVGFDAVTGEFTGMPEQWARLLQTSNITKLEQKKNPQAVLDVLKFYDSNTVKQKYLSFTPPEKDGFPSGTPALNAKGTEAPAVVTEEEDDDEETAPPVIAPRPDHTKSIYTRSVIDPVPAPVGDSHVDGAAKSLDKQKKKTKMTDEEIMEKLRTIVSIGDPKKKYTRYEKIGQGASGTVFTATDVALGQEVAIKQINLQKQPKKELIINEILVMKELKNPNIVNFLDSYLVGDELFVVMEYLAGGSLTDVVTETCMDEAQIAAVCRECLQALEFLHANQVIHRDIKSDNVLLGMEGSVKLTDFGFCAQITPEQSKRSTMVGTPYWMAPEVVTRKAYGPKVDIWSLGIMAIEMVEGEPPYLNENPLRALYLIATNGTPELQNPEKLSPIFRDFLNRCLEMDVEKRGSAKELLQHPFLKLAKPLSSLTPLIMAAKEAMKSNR
T20 sequence (O96013 whole entry): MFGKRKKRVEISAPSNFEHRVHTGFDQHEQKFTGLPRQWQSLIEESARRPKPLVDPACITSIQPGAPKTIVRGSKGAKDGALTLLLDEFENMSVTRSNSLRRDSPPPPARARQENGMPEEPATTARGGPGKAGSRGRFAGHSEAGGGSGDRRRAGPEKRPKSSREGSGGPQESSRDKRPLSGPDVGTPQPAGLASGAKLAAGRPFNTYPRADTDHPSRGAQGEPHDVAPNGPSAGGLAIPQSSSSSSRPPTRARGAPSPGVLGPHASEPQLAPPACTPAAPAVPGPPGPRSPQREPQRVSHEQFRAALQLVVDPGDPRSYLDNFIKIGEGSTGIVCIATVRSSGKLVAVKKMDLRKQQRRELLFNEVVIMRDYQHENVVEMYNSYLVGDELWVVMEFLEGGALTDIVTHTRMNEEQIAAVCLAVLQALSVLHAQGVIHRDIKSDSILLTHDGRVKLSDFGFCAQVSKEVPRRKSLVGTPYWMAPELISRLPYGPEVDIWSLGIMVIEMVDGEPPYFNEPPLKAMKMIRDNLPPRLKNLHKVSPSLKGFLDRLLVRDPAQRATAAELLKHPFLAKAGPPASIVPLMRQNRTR
T21 sequence (Q00537 whole entry): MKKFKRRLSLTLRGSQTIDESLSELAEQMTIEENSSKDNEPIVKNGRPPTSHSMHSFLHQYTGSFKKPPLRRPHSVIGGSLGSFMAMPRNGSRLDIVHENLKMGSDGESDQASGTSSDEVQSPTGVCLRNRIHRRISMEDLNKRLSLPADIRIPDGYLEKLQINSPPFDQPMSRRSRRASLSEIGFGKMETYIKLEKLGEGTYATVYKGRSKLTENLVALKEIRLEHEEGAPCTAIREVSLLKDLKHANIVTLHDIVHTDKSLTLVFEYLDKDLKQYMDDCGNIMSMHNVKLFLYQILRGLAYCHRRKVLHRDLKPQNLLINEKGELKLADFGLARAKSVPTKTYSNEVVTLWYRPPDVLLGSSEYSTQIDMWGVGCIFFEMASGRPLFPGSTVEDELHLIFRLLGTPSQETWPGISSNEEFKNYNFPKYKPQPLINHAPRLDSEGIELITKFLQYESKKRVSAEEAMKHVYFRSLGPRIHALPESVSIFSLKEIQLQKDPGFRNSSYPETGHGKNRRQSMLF
T10 sequence (Q9H2G2 whole entry): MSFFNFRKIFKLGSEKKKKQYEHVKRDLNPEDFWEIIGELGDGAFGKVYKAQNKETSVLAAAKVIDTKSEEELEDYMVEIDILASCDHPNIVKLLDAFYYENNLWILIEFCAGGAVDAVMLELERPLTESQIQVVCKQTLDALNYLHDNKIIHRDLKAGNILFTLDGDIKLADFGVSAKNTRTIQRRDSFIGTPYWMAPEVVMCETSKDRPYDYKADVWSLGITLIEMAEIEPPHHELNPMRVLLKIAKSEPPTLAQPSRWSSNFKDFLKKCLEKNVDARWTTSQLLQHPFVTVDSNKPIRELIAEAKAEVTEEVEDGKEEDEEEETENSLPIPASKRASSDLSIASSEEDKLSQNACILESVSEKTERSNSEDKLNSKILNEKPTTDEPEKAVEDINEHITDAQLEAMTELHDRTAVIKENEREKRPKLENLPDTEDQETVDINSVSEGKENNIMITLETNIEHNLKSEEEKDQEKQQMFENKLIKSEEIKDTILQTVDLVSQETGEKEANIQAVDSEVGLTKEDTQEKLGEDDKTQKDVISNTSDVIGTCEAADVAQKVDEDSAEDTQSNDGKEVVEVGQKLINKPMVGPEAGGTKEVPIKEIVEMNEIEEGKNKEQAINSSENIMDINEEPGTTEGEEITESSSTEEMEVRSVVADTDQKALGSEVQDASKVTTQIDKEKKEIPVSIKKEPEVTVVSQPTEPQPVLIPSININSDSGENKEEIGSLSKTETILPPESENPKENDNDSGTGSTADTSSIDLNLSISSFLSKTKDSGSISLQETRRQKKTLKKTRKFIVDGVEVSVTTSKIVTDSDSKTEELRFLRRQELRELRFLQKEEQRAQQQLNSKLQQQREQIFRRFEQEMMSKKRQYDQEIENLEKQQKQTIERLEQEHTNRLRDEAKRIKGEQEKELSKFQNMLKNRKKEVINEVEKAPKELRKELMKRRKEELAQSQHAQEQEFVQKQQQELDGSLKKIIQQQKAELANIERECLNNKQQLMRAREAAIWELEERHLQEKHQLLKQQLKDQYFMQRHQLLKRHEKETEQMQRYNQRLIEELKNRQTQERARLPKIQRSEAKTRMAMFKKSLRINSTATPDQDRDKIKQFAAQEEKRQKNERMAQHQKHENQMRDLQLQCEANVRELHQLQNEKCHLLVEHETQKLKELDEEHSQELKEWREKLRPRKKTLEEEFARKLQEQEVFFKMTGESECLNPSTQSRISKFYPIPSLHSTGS
T2 sequence (P36894 24-532): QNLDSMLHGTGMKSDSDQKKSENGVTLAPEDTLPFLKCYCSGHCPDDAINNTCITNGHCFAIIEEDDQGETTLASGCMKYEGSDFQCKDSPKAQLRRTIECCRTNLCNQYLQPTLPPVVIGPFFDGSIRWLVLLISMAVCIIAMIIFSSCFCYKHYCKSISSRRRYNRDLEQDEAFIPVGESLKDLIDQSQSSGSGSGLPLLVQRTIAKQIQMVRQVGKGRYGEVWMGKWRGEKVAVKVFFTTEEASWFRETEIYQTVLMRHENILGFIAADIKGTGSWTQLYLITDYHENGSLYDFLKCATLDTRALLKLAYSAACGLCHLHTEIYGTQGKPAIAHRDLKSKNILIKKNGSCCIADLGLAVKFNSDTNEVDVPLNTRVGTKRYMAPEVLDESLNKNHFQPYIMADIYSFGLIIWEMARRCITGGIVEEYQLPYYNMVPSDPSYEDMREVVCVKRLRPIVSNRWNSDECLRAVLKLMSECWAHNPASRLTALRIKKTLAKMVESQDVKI
T15 sequence (O15146 24-869): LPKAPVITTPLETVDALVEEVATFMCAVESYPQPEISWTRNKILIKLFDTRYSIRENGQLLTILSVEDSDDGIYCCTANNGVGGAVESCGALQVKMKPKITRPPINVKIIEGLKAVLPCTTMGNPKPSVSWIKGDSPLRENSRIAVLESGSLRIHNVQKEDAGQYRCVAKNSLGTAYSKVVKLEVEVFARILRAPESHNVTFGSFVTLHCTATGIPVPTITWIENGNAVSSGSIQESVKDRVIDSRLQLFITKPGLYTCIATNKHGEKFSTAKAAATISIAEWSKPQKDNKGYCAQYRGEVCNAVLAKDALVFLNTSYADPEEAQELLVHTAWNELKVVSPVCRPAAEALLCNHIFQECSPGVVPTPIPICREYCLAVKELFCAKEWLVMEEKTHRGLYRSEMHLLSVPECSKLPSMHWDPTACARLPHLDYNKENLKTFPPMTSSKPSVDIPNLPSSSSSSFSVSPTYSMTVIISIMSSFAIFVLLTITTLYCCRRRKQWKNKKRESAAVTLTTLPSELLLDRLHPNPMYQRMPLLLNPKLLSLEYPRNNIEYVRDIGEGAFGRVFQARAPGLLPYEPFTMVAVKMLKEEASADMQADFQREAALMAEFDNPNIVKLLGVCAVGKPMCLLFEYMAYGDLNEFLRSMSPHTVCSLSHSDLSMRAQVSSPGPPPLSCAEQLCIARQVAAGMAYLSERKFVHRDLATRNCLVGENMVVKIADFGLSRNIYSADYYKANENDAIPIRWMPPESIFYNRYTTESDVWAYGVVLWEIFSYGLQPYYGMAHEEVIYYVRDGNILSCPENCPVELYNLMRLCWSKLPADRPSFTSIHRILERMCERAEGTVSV

## O=C(Nc1ccc(Oc2ncnc3[nH]ncc23)cc1)Nc1ccc(Cl)c(C(F)(F)F)c1 [Compound 1, 1-(4-(1H-pyrazolo[3,4-d]pyrimidin-4-yloxy)phenyl)-3-(4-chloro-3-(trifluoromethyl)phenyl)urea]
PAK2 [1]
  IC50: > 10 µM
PAK1
  IC50: > 10 µM

## CC(C)(C)c1cc(NC(=O)Nc2ccc(Oc3ncnc4[nH]ncc34)c(F)c2)no1 [SKLB-677, 1-(4-(1H-pyrazolo[3,4-d]pyrimidin-4-yloxy)-3-fluorophenyl)-3-(5-tert-butylisoxazol-3-yl)urea]
[2]
  embryos unaffected: 65%
  embryos with mild or moderate posteriorized phenotypes: 35%
BMPR1A
  remaining binding at 10 µM: 90%
CDK5
  remaining binding at 10 µM: 4.2%
[3]
  remaining binding at 10 µM: 19%
A2058
  IC50: > 10 µM
MV4-11 cells
  apoptosis of AML cells: about 50%
EPHA8
  remaining binding at 10 µM: 0.1%
PAK2 [4]
  remaining binding at 10 µM: 79%
EPHA4
  remaining binding at 10 µM: 4.8%
MEK6
  remaining binding at 10 µM: 62%
MYLK2
  remaining binding at 10 µM: 72%
[5]
  remaining binding at 10 µM: 2.2%
SLK
  remaining binding at 10 µM: 0.2%
TTK
  remaining binding at 10 µM: 17%
NEK1
  remaining binding at 10 µM: 64%
GRK1
  remaining binding at 10 µM: 97%
EPHB2
  remaining binding at 10 µM: 5.2%
MUSK
  remaining binding at 10 µM: 0%
[6]
  remaining binding at 10 µM: 38%
LKB1
  remaining binding at 10 µM: 96%
[7]
  remaining binding at 10 µM: 5.2%
IGF1R
  remaining binding at 10 µM: 70%
PAK4
  Kd: > 10 µM
PCTK2
  remaining binding at 10 µM: 0%
DYRK2
  remaining binding at 10 µM: 34%
LRRK2(G2019S)
  remaining binding at 10 µM: 78%
BTK
  Kd: > 10 µM
